# Experimental data: PubChem BioAssay AID2060905 (Molecular Pharmacology Branch, DTP, NCI, 2025)
# Tested on: 282377-053-R-J1-PDC complex spheroid viability
# Assay: Anticancer human tumor 282377-053-R-J1-PDC patient-derived colon adenocarcinoma cell line growth inhibition [RAS]
# Conditions: for IC50: curve of first compound; for viability, T/C: stronger effect = lower value
# How it was run: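 Tumour cells grown as complex spheroids with HUVEC endothelial cells and mesenchymal stem cells, treated with RAS pathway inhibitor combinations. Each agent spans half-log steps from near clinical Cmax, or 10 microM where Cmax is unknown.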
# [1] = second compound 0.00316 µM, first compound 0.0316 µM
# [2] = second compound 0.00316 µM, first compound 0.1 µM
# [3] = second compound 0.01 µM, first compound 0.0316 µM
# [4] = second compound 0.01 µM, first compound 0.1 µM
# [5] = second compound 0.0316 µM, first compound 0.0316 µM
# [6] = second compound 0.0316 µM, first compound 0.1 µM
# [7] = second compound 0.1 µM, first compound 0.0316 µM
# [8] = second compound 0.1 µM, first compound 0.1 µM
# [9] = second compound 0.316 µM, first compound 0.0316 µM
# [10] = second compound 0.316 µM, first compound 0.1 µM
# [11] = second compound 1 µM, first compound 0.0316 µM
# [12] = second compound 1 µM, first compound 0.1 µM
# 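Further: spheroids exposed to agents for seven days before readout.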
# 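Wherever viability, T/C is given: luminescence viability as percent of DMSO vehicle control wells.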
smiles,measurement,setting,value
CC(C)NCC(C(=O)N1CCN(c2ncnc3c2C(C)CC3O)CC1)c1ccc(Cl)cc1 (centres undefined) + C=CC(=O)N1CCN(c2nc(OCC3CCCN3C)nc3c(F)c(-c4nc(N)cc(C)c4C(F)(F)F)c(Cl)cc23)C(C)C1,IC50,second compound 0.00316 µM,> 10000 nM
same,IC50,second compound 0.01 µM,> 10000 nM
same,IC50,second compound 0.0316 µM,> 10000 nM
same,IC50,second compound 0.1 µM,> 10000 nM
same,IC50,second compound 0.316 µM,> 10000 nM
same,IC50,second compound 1 µM,> 10000 nM
same,"viability, T/C",[1],104%
same,"viability, T/C",[2],108%
same,"viability, T/C","second compound 0.00316 µM, first compound 0.316 µM",96.2%
same,"viability, T/C","second compound 0.00316 µM, first compound 1 µM",94.1%
same,"viability, T/C","second compound 0.00316 µM, first compound 3.16 µM",88.8%
same,"viability, T/C","second compound 0.00316 µM, first compound 10 µM",84.7%
same,"viability, T/C",[3],99.3%
same,"viability, T/C",[4],107%
same,"viability, T/C","second compound 0.01 µM, first compound 0.316 µM",83.2%
same,"viability, T/C","second compound 0.01 µM, first compound 1 µM",110%
same,"viability, T/C","second compound 0.01 µM, first compound 3.16 µM",89.5%
same,"viability, T/C","second compound 0.01 µM, first compound 10 µM",75.6%
same,"viability, T/C",[5],98.2%
same,"viability, T/C",[6],99.3%
same,"viability, T/C","second compound 0.0316 µM, first compound 0.316 µM",89.3%
same,"viability, T/C","second compound 0.0316 µM, first compound 1 µM",97.3%
same,"viability, T/C","second compound 0.0316 µM, first compound 3.16 µM",91.8%
same,"viability, T/C","second compound 0.0316 µM, first compound 10 µM",85.4%
same,"viability, T/C",[7],97.9%
same,"viability, T/C",[8],105%
same,"viability, T/C","second compound 0.1 µM, first compound 0.316 µM",98.7%
same,"viability, T/C","second compound 0.1 µM, first compound 1 µM",95.8%
same,"viability, T/C","second compound 0.1 µM, first compound 3.16 µM",82.7%
same,"viability, T/C","second compound 0.1 µM, first compound 10 µM",79.8%
same,"viability, T/C",[9],101%
same,"viability, T/C",[10],96.7%
same,"viability, T/C","second compound 0.316 µM, first compound 0.316 µM",96.2%
same,"viability, T/C","second compound 0.316 µM, first compound 1 µM",98%
same,"viability, T/C","second compound 0.316 µM, first compound 3.16 µM",101%
same,"viability, T/C","second compound 0.316 µM, first compound 10 µM",84.8%
same,"viability, T/C",[11],100%
same,"viability, T/C",[12],88.5%
same,"viability, T/C","second compound 1 µM, first compound 0.316 µM",118%
same,"viability, T/C","second compound 1 µM, first compound 1 µM",78.9%
same,"viability, T/C","second compound 1 µM, first compound 3.16 µM",68.7%
same,"viability, T/C","second compound 1 µM, first compound 10 µM",76%
CC(C)n1nc(-c2ccc3oc(N)nc3c2)c2c(N)ncnc21 + C=CC(=O)N1CCN(c2nc(OCC3CCCN3C)nc3c(F)c(-c4nc(N)cc(C)c4C(F)(F)F)c(Cl)cc23)C(C)C1,IC50,second compound 0.00316 µM,> 100 nM
same,IC50,second compound 0.01 µM,89.8 nM
same,IC50,second compound 0.0316 µM,94.1 nM
same,IC50,second compound 0.1 µM,85.9 nM
same,IC50,second compound 0.316 µM,> 100 nM
same,IC50,second compound 1 µM,> 100 nM
same,"viability, T/C","second compound 0.00316 µM, first compound 0.000316 µM",96.6%
same,"viability, T/C","second compound 0.00316 µM, first compound 0.001 µM",86.9%
same,"viability, T/C","second compound 0.00316 µM, first compound 0.00316 µM",80%
same,"viability, T/C","second compound 0.00316 µM, first compound 0.01 µM",87.7%
same,"viability, T/C",[1],62.8%
same,"viability, T/C",[2],54.5%
same,"viability, T/C","second compound 0.01 µM, first compound 0.000316 µM",85.3%
same,"viability, T/C","second compound 0.01 µM, first compound 0.001 µM",81%
same,"viability, T/C","second compound 0.01 µM, first compound 0.00316 µM",74.5%
same,"viability, T/C","second compound 0.01 µM, first compound 0.01 µM",87%
same,"viability, T/C",[3],68.8%
same,"viability, T/C",[4],47.8%
same,"viability, T/C","second compound 0.0316 µM, first compound 0.000316 µM",92.2%
same,"viability, T/C","second compound 0.0316 µM, first compound 0.001 µM",98.3%
same,"viability, T/C","second compound 0.0316 µM, first compound 0.00316 µM",87.5%
same,"viability, T/C","second compound 0.0316 µM, first compound 0.01 µM",82.5%
same,"viability, T/C",[5],97.5%
same,"viability, T/C",[6],47.7%
same,"viability, T/C","second compound 0.1 µM, first compound 0.000316 µM",81.7%
same,"viability, T/C","second compound 0.1 µM, first compound 0.001 µM",105%
same,"viability, T/C","second compound 0.1 µM, first compound 0.00316 µM",91%
same,"viability, T/C","second compound 0.1 µM, first compound 0.01 µM",78.3%
same,"viability, T/C",[7],77.5%
same,"viability, T/C",[8],45.7%
same,"viability, T/C","second compound 0.316 µM, first compound 0.000316 µM",110%
same,"viability, T/C","second compound 0.316 µM, first compound 0.001 µM",103%
same,"viability, T/C","second compound 0.316 µM, first compound 0.00316 µM",109%
same,"viability, T/C","second compound 0.316 µM, first compound 0.01 µM",68.3%
same,"viability, T/C",[9],61.9%
same,"viability, T/C",[10],48.6%
same,"viability, T/C","second compound 1 µM, first compound 0.000316 µM",99.9%
same,"viability, T/C","second compound 1 µM, first compound 0.001 µM",85.1%
same,"viability, T/C","second compound 1 µM, first compound 0.00316 µM",112%
same,"viability, T/C","second compound 1 µM, first compound 0.01 µM",67.7%
same,"viability, T/C",[11],55.4%
same,"viability, T/C",[12],61.9%
